Target: T1, hFXR (Homo sapiens, UniProt Q96RI1)
T1 construct: expressed in transfected cells; host or cells: CV-1 cells
T1 sequence (Q96RI1 1-486): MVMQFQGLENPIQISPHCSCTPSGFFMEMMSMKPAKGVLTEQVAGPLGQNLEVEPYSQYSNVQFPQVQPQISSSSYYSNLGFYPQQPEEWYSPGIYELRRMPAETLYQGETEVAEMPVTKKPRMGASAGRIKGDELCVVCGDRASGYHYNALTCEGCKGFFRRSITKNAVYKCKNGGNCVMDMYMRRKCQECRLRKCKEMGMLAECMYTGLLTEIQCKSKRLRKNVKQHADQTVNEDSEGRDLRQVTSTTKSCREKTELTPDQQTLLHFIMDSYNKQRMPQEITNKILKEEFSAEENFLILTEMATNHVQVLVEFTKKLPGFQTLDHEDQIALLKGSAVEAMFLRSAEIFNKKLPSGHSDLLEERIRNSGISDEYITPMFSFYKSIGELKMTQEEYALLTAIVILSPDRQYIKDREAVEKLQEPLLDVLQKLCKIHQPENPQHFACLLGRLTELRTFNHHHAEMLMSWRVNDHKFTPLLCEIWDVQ
T1 sequence (P19793 1-462 partner): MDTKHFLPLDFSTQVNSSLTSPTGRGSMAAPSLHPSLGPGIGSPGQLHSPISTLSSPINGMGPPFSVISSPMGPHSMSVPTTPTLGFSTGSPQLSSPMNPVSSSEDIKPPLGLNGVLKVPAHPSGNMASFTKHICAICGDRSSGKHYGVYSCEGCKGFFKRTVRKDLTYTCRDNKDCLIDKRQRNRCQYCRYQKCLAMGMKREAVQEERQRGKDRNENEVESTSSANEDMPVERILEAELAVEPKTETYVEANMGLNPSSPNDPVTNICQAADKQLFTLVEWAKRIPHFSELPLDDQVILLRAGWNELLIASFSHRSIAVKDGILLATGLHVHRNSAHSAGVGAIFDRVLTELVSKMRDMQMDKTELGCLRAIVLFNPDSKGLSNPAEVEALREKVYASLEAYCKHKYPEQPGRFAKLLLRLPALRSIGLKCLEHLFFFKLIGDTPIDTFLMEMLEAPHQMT
Assay: In Vitro FXR Assay (TK): TK-ECRE-luc reporter in transfected CV-1 cells
Assay type: cell-based
Settings: 18 hrs incubation, luminescence
In short: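 Luminescence from a TK-ECRE-luc reporter was read after 18 h of compound exposure in CV-1 cells. These cells were grown in charcoal-stripped FBS medium and transiently transfected with hFXR, hRXR and YFP expression plasmids.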

EC50 [nM] | Structure (SMILES)
≤ 50 | COc1ccc(C23CCC(CN(c4ccc(Cl)c(-c5cnn(C(C)C)c5)c4)C(=O)[C@H]4CC[C@H](OC(=O)N5CC(O)C5)CC4)(CC2)CC3)cc1C [Compound 26.04, 4-((4-Chloro-3-(1-isopropyl-1H-pyrazol-4-yl)phenyl)((4-(4-methoxy-3-methylphenyl)bicyclo[2.2.2]octan-1-yl)methyl)carbamoyl)(trans-cyclohexyl) 3-hydroxyazetidine-1-carboxylate]
≤ 50 | COc1ccc([C@H]2CC[C@H](CN(c3cc(-c4ccc(N(C)C)nc4)ccn3)C(=O)[C@H]3CC[C@H](OC(=O)N4CC(O)C4)CC3)CC2)cc1C [Compound 3, trans-4-((6-(Dimethylamino)-[3,4′-bipyridine]-2′-yl)((trans-4-(4-methoxy-3-methylphenyl)cyclohexyl)methyl)carbamoyl)cyclohexyl 3-hydroxyazetidine-1-carboxylate]
1000 to 10000 | COc1ccc(C23CCC(CN(c4cc(-n5nnc(C(C)C)n5)ccn4)C(=O)[C@H]4CC[C@H](OC(=O)N5CC(O)C5)CC4)(CC2)CC3)cc1C [Compound 26.17, 4-((4-(5-Isopropyl-2H-tetrazol-2-yl)pyridin-2-yl)((4-(4-methoxy-3-methylphenyl)bicyclo[2.2.2]octan-1-yl)methyl)carbamoyl)cyclohexyl trans-3-hydroxyazetidine-1-carboxylate]
≤ 50 | COc1ccc([C@H]2CC[C@H](CN(c3cccc(-c4cnn(C(C)C)c4)c3)C(=O)[C@H]3CC[C@H](NC(=O)C4CCOCC4)CC3)CC2)cc1C [Compound 10.02, N-(trans-4-((3-(1-Isopropyl-1H-pyrazol-4-yl)phenyl)((trans-4-(4-methoxy-3-methylphenyl)cyclohexyl)methyl)carbamoyl)cyclohexyl)tetrahydro-2H-pyran-4-carboxamide]
≤ 50 | COc1ccc([C@H]2CC[C@H](CN(c3cc(-c4cnn(C(C)C)c4)ccn3)C(=O)[C@H]3CC[C@H](OC(=O)N4CC(OC)C4)CC3)CC2)cc1C [Compound 2.18, trans-4-((4-(1-Isopropyl-1H-pyrazol-4-yl)pyridin-2-yl) ((trans-4-(4-methoxy-3-methylphenyl)cyclohexyl)methyl)carbamoyl) cyclohexyl 3-methoxyazetidine-1-carboxylate]
≤ 50 | COc1ccc([C@H]2CC[C@H](CN(c3cccc(-c4cnn(C(C)C)c4)c3)C(=O)[C@H]3CC[C@H](CCO)CC3)CC2)cc1C [Compound 15, trans-4-(2-Hydroxyethyl)-N-(3-(1-isopropyl-1H-pyrazol-4-yl)phenyl)-N-((trans-4-(4-methoxy-3-methylphenyl)cyclohexyl)methyl)cy-clohexanecarboxamide]
≤ 50 | COc1ccc(C23CCC(CN(c4cncc(-c5cnn(C6(C)CCC6)c5)c4)C(=O)[C@H]4CC[C@H](OC(=O)N5CC(O)C5)CC4)(CC2)CC3)cc1C [Compound 25.22, 4-(((4-(4-Methoxy-3-methylphenyl)bicyclo[2.2.2]octan-1-yl)methyl)(5-(1-(1-methylcyclobutyl)-1H-pyrazol-4-yl)pyridin-3-yl)carbamoyl)cyclohexyl trans-3-hydroxyazetidine-1-carboxylate]
≤ 50 | CC(C)c1ccc(C23CCC(CN(c4nccc(-c5cnn(C(C)C)c5)n4)C(=O)[C@H]4CC[C@H](OC(=O)N5CC(O)C5)CC4)(CC2)CC3)cc1 [Compound 4.62, 4-((4-(1-Isopropyl-1H-pyrazol-4-yl)pyrimidin-2-yl)((4-(4-isopropylphenyl)bicyclo[2.2.2]octan-1-yl)methyl)carbamoyl)(trans-cyclohexyl) 3-hydroxyazetidine-1-carboxylate]
≤ 50 | COc1ccc(C23CCC(CN(c4cc(-c5nnn(C(C)C)n5)ccn4)C(=O)[C@H]4CC[C@H](OC(=O)N5CC(O)C5)CC4)(CC2)CC3)cc1C [Compound 26.16, 4-((4-(2-Isopropyl-2H-tetrazol-5-yl)pyridin-2-yl)((4-(4-methoxy-3-methylphenyl)bicyclo[2.2.2]octan-1-yl)methyl)carbamoyl)cyclohexyl trans-3-hydroxyazetidine-1-carboxylate]
≤ 50 | COc1ccc(C23CCC(CN(c4cc(-c5cc(C6CC6)on5)ccn4)C(=O)[C@H]4CC[C@H](OC(=O)N5CC(O)C5)CC4)(CC2)CC3)cc1C [Compound 4.26, 4-((4-(5-Cyclopropylisoxazol-3-yl)pyridin-2-yl)((4-(4-methoxy-3-methylphenyl)bicyclo[2.2.2]octan-1-yl)methyl)carbamoyl) cyclohexyl 3-hydroxyazetidine-trans-1-carboxylate]
≤ 50 | COc1ccc(C23CCC(CN(c4cc(-c5cnc(C(C)C)s5)ccn4)C(=O)[C@H]4CC[C@H](OC(=O)NCCC(C)(C)O)CC4)(CC2)CC3)cc1C [Compound 4.39, 4-((4-(2-Isopropylthiazol-5-yl)pyridin-2-yl)((4-(4-methoxy-3-methylphenyl)bicyclo[2.2.2]octan-1-yl)methyl)carbamoyl)(trans-cyclohexyl) (3-hydroxy-3-methylbutyl)carbamate]
≤ 50 | COc1ccc(C23CCC(CN(c4cc(-c5cnn(C6CCCC6)c5)ccn4)C(=O)[C@H]4CC[C@H](OC(=O)N5CC(CO)C5)CC4)(CC2)CC3)cc1C [Compound 23.09, 4-((4-(1-Cyclopentyl-1H-pyrazol-4-yl)pyridin-2-yl)((4-(4-methoxy-3-methylphenyl)bicyclo[2.2.2]octan-1-yl)methyl)carba-moyl)(trans-cyclohexyl) 3-(hydroxymethyl)azetidine-1-carboxylate]
≤ 50 | COc1ccc(C23CCC(CN(c4cc(-c5cnn(C(C)C)c5)ccn4)C(=O)[C@H]4CC[C@H](OC(=O)NC(C)C)CC4)(CC2)CC3)cc1C [Compound 4.04, 4-((4-(1-Isopropyl-1H-pyrazol-4-yl)pyridin-2-yl)((4-(4-methoxy-3-methylphenyl)bicyclo [2.2.2]octan-1-yl)methyl)carbamoyl)cyclohexyl trans-isopropylcarbamate]
50 to 1000 | COc1ccc(C23CCC(CN(c4cc(-c5nnc(C(C)C)o5)ccn4)C(=O)[C@H]4CC[C@H](OC(=O)N5CC(O)C5)CC4)(CC2)CC3)cc1C [Compound 26.12, 4-((4-(5-Isopropyl-1,3,4-oxadiazol-2-yl)pyridin-2-yl)((4-(4-methoxy-3-methylphenyl)bicyclo[2.2.2]octan-1-yl)methyl)carbamoyl)cyclohexyl trans-3-hydroxyazetidine-1-carboxylate]
≤ 50 | COc1ccc(C23CCC(CN(c4cc(-n5ccc(C(C)C)n5)ccn4)C(=O)[C@H]4CC[C@H](OC(=O)N5CC(O)C5)CC4)(CC2)CC3)cc1C [Compound 23.15, 4-((4-(3-Isopropyl-1H-pyrazol-1-yl)pyridin-2-yl)((4-(4-methoxy-3-methylphenyl)bicyclo[2.2.2]octan-1-yl)methyl)carbamoyl)cyclo-hexyl trans-3-hydroxyazetidine-1-carboxylate]
≤ 50 | COc1ccc(C23CCC(CN(c4cc(-n5cnc(C6CC6)n5)ccn4)C(=O)[C@H]4CC[C@H](OC(=O)N5CC(O)C5)CC4)(CC2)CC3)cc1C [Compound 4.17, 4-((4-(3-Cyclopropyl-1H-t1,2,4-riazol-1-yl)pyridin-2-yl)((4-(4-methoxy-3-methylphenyl)bicyclo [2.2.2]octan-1-yl)methyl)carbamoyl)cyclohexyl 3-hydroxyazetidine-trans-1-carboxylate]
50 to 1000 | COc1ccc([C@H]2CC[C@H](CN(c3cc(-c4cnn(C(F)(F)F)c4)ccn3)C(=O)[C@H]3CC[C@H](OC(=O)NCC(C)(C)O)CC3)CC2)cc1C [Compound 2.58, trans-4-((((trans)-4-(4-Methoxy-3-methylphenyl)cyclohexyl)methyl) (4-(1-(trifluoromethyl)-1H-pyrazol-4-yl)pyridin-2-yl)carbamoyl)cyclohexyl (2-hydroxy-2-methylpropyl)carbamate]
1000 to 10000 | COc1ccc(C23CCC(CN(c4cc(-c5cnn(C6CCS(=O)(=O)CC6)c5)ccn4)C(=O)[C@H]4CC[C@H](OC(=O)N5CC(O)C5)CC4)(CC2)CC3)cc1C [Compound 26.23, 4-((4-(1-(1,1-Dioxidotetrahydro-2H-thiopyran-4-yl)-1H-pyrazol-4-yl)pyridin-2-yl)((4-(4-methoxy-3-methylphenyl)bicyclo[2.2.2]octan-1-yl)methyl)carbamoyl)cyclohexyl trans-3-hydroxyazetidine-1-carboxylate]
50 to 1000 | CCOC(=O)NC[C@H]1CC[C@H](C(=O)N(C[C@H]2CC[C@H](c3ccc(OC)c(C)c3)CC2)c2cccc(-c3cnn(C(C)C)c3)c2)CC1 [Compound 12.03, Ethyl (((trans)-4-((3-(1-isopropyl-1H-pyrazol-4-yl)phenyl)(((trans)-4-(4-methoxy-3-methylphenyl)cyclohexyl)methyl)carbamoyl)cyclohexyl)methyl)car-bamate]
